Data on three molecules can be found in patent publication US9700596B2, “Locally released growth factors to mediate motor recovery after stroke” (The Regents of the University of California, priority 2011, dated 2017).

“Also recorded” adds a separate entry of the source.

For data set [1] the following is noted: CFM2 50 μmol/kg i.p. bid; cited from earlier work.
For data set [2], the system named is focal stroke in forelimb motor cortex. Nature of the data set: Grid-walking task (footfaults) after photothrombotic focal stroke. It counts as in vivo, mouse. The conditions noted are these: for number of forelimb footfaults / function of impaired forelimb, grid-walking: i.p. twice daily from 5 d after stroke for 6 weeks, CX1837 0.33 or 1 mg/kg, CX1739 3 or 30 mg/kg, CFM2 50 μmol/kg, vs stroke plus vehicle. Here is the method: (§1) Focal stroke was induced by photothrombosis in adult male C57BL/6 mice weighing 20-25 g as previously described (Clarkson et al. (2010) Nature 468: 305-309).
(§2) CX1837 (0.33 and 1 mg/kg) and CX1739 (3 and 30 mg/kg) were dissolved in 30% hydroxypropyl_β-cyclodextran (HPCD) (made 1:1 in 0.9% saline and distilled H2O) and administered intraperitoneally twice daily starting 5 d after stroke for a period of 6 weeks. The AMPAR antagonist CFM2 ([…]) (De Sarro et al. (1999) Eur. J. Pharmacol., 368: 149-159) was administered intraperitoneally twice daily for 6 weeks.
A hyaluronan/heparin sulfate proteoglycan biopolymer hydrogel (Extracel-HP, a.k.a., HYSTEM®-HP; BioTime,) was used to locally deliver TrkB-Fc (5 μg/ml) and human IgG-Fc (antibody and vehicle control) to the periinfarct cortex (Li et al. (2010) Nat. Neurosci. 13: 1496-1504). This hydrogel was chosen because it is composed of naturally occurring brain extracellular matrix constituents; remains liquid for a period after mixing so that it can be injected into the brain through a small, minimally invasive needle; and will gel within the stroke cavity, conforming to the boundaries of this cavity. We have shown that this hydrogel releases small and large proteins for up to 4 weeks from the infarct cavity after stroke. Five days after stroke, 10 μl of Extracel-HP (HYSTEM®-HP), impregnated with TrkB-Fc (5 μg/ml) or human IgG-Fc (vehicle), was injected directly into the stroke infarct cavity using a 30 gauge needle attached to a Hamilton syringe. Extracel-HP was prepared according to the manufacturer's instructions. […]
(§3) Animals were tested once on both the grid-walking and cylinder tasks, 1 week before surgery to establish baseline performance levels. For the reaching task, mice were trained for a period of 14 d and subsequently tested on day 15 to establish a baseline reading. […] Behaviors were scored by observers who were blind to the treatment group of the animals in the study as previously described (Clarkson et al. (2010) Nature 468: 305-309). […]

For data set [3] the test system is unchanged. Nature of the data set: Single-pellet skilled-reaching task after stroke. It counts as in vivo, mouse. Conditions: CFM2 50 μmol/kg i.p. bid from 5 d after stroke. Here is the method:
For loss-of-function studies assessing CFM2, the single-pellet skilled-reaching task was used (Conner et al. (2005) Neuron 46: 173-179). Before stroke, animals were trained for […] to successfully reach and retrieve 20 mg sugar pellets (Bio-Serv). A three lane Plexiglas reaching apparatus (30 cm deep, 10 cm wide, and 30 cm high for each lane) was constructed to allow simultaneous recording of three animals. Each lane consists of two 5 mm slots situated against the front-right and front-left walls of the chamber to force the mouse the reach for the pellets using either their right or left forepaws. A 5-mm-thick plastic shelf was mounted 15 mm from the floor at the front of the box.
During the training period, mice were fasted to 90% of their body weight and maintained at this level for the full 3 week training period. […]
All mice were fasted the night before testing. Pellets were presented one at a time and reaches were recorded with a Canon VIXIA HV30 video recorder. […] If an animal reached through the slot and obtained/grasped a food pellet and brought the pellet back through the slot, the reach was scored as a success. If an animal knocked the pellet away or dropped the pellet after grasping it, the reach was scored as a miss. The performance of each mouse was scored as follows: percentage success[…](number of successful retrievals/15)*100.

Data set [4] concerns hilar EPSPs (dentate gyrus of the hippocampus).
Protocol: Male Long-Evans rats (250-350 g) were anesthetized by pentobarbital (60 mg/kg, i.p.) and maintained under anesthesia by pentobarbital infusion (2-4 mg·kg-^1·h^−1). Under anesthesia, animals were placed in a stereotaxic frame and small holes were drilled into the skull of the left hemisphere to allow the positioning of a stimulating electrode (−7.8 to −8.1 AP; 4.2 to 4.4 ML) and a recording electrode (−3.0 to −3.3 AP; 1.6 to 2.2 ML). A monopolar stainless-steel stimulating electrode (175 μm, insulated with Formvar) was lowered into the perforant path together with a platinum/iridium recording electrode (75 μm) into the hilus of the dentate gyms of the hippocampus. The current used to elicit an evoked potential was adjusted to produce a response size 50-60% of the maximal spike-free amplitude. Evoked hilar EPSPs were recorded in response to single-pulse stimulation delivered at a frequency of one pulse per 20 s.
Data acquisition and analysis was performed using commercially available software (NAC and NACSHOW).
The subject of data set [5] is BDNF. Nature of the data set: BDNF ELISA of cortical tissue 7 d after stroke. It counts as in vivo, mouse. Conditions: treatment from day 5, CX1837 1 mg/kg, CX1739 3 mg/kg, vs stroke plus vehicle. Here is the method: (§4) Tissue was collected from around the stroke site from stroke plus vehicle, stroke plus CX1837 (1 mg/kg), and stroke plus CX1739 (3 mg/kg), and control groups 7 d after stroke. Cortical tissue was dissected in a 1 mm radius around the stroke infarct core, including the core itself, and flash frozen on dry ice.
Equal volumes of tissue were homogenized in […] of homogenization buffer [Complete Protease Inhibitor Tablet (Invitrogen), 1 mM phenylmethylsulfonylfluoride, 50 mM Tris-HCl, 5 mM EDTA, 10 mM EGTA, 1% Triton X-100] for ˜1 min. Tissue and homogenization buffer were incubated on ice for 30 min, followed by a 5 min spin at 14,000 rpm. The supernatant was collected and total protein concentrations were determined using the DC Protein Assay (Bio-Rad). BDNF was measured using the BDNF ELISA Emax Immunoassay System (Promega) as per the manufacturer's instructions. BDNF levels were determined relative to a standard curve constructed from measures of kit-supplied BDNF protein standards (0-500 pg of BDNF protein) that were assayed simultaneously with the experimental samples. BDNF levels are expressed as picograms of BDNF per 100 μg of sample protein.
Background: An ELISA detects its analyte on a solid surface through an enzyme-linked reagent.

The test system of data set [6] is focal stroke in forelimb motor cortex. Nature of the data set: Spontaneous-forelimb (cylinder) task after photothrombotic focal stroke. It counts as in vivo, mouse. Conditions: i.p. twice daily from 5 d after stroke for 6 weeks; CX1837 0.33 or 1 mg/kg, CX1739 3 or 30 mg/kg; vs stroke plus vehicle. As for the experimental part:
as §1, §2
A hyaluronan/heparin sulfate proteoglycan biopolymer hydrogel (Extracel-HP, a.k.a., HYSTEM®-HP; BioTime,) was used to locally deliver TrkB-Fc (5 μg/ml) and human IgG-Fc (antibody and vehicle control) to the periinfarct cortex (Li et al. (2010) Nat. Neurosci. 13: 1496-1504). […]
as §3

Data set [7] relates to TrkB. Nature of the data set: TrkB/p-Trk immunoblotting of cortical tissue 7 d after stroke. It counts as in vivo, mouse. Conditions: CX1837 1 mg/kg, CX1739 3 mg/kg, vs stroke plus vehicle. Here is the method:
as §4
For immunoblotting experiments, protein (10 μg) was loaded onto a 12% SDS-polyacrylamide gel, subjected to electrophoresis, and transferred to a pure nitrocellulose membrane (GE Healthcare). The membrane was blocked in 10% nonfat milk and probed with polyclonal antibodies specific for anti-TrkB (1:1000; Santa Cruz Biotechnology) and anti-p-Trk (1:5000; Santa Cruz Biotechnology). The blots were incubated with peroxidase-labeled anti-rabbit IgG (1:2000; Vector Laboratories) and immunoreactive proteins were visualized using enhanced chemiluminescence (GE Healthcare). β-Actin was used as a loading control (1:5000; Abcam). Optical density (OD) was determined using the NIH ImageJ software. Pixel intensities were converted to OD using the calibration curve of the software, and background-subtracted values were expressed as OD/[…] total protein.
(A western blot detects proteins with antibodies after separation by electrophoresis.)

On to `COc1cc2c(cc1OC)C(c1ccc(N)cc1)=NNC(=O)C2` [CFM2], for which the “general behavioral side effects (reduced motor activity, impaired grooming, weight loss)” value in data set [1] is recorded as “did not produce general behavioral side effects”. In addition, in data set [2], the “number of forelimb footfaults / function of impaired forelimb, grid-walking” value is reported as “significant impairment in the normal gain of motor function; also recorded: significant increase in the number of footfaults”. Moreover, in data set [3], the “successful pellet retrieval with impaired right forelimb” value is recorded as “significant impairment in the ability to retrieve pellets successfully out to 2 weeks after stroke; also recorded: decrease in the number of pellets successfully retrieved”.
Regarding `CN(C(=O)c1ccc2nonc2c1)C1CCOCC1` [CX1739], the “excitability ceiling of the EPSP amplitude effect (dose)” value in data set [4] (i.p., anesthetized rats) is on record as 10 mg/kg. Also, in data set [4] (rat, in vivo, ip), the “crossing of the blood-brain barrier when given systemically” value is reported as “cross the blood-brain barrier”. In data set [2], the “number of forelimb footfaults / function of impaired forelimb, grid-walking” value is on record as “small decrease in the number of footfaults; also recorded: small yet non-significant decrease in the number of footfaults”. Moreover, the “BDNF levels in periinfarct cortex” value in data set [5] was “did not change the level of BDNF expression”. Further, the “forelimb asymmetry (left/right ratio), cylinder task” value in data set [6] is “small increase in the use of the right-impaired forelimb; also recorded: did not result in a decrease in the left/ratio”. The “TrkB phosphorylation in periinfarct cortex” value in data set [7] was “did not change the level of TrkB phosphorylation”.

B1: brain derived neurotrophic factor (protein)
chain: HSDPARRGELSVCDSISEWVTAADKKTAVDMSGGTVTVLEKVPVSKGQLKQYFYETKCNPMGYTKEGCRGIDKRHWNSQCRTTQSYVRALTMDSKKRIGWRFIRIDTSCVCTLTIKRGR
notes: growth factor, delivered through HYSTEM-C from 7 days after stroke
Consider B1, for which the “forelimb footfaults / functional recovery with hydrogel-delivered BDNF” value in data set [2] (injected 7 days after stroke, 4 weeks after injection, 5 weeks after stroke) is listed as “significant improvements in functional recovery”.
